Data published in patent publication US9725430B2, “Use of small molecule inhibitors targeting EYA tyrosine phosphatase” (Children's Hospital Medical Center, priority 2013, dated 2017).

How the values were obtained:
[1] = biological target: PTP1B (Homo sapiens (Human), UniProt P18031); test: PTP1B-catalyzed pNPP hydrolysis; assay type: biochemical; settings: for IC50: pNPP substrate
Procedure: The catalytic domain of human Eya2 (“hEYA2(ED)”) was similarly sub-cloned as a polyhistidine fusion construct in the vector pDEST-527. Fusion protein was purified by NiNTA chromatography and followed by size-exclusion chromatography over a Superdex-75 column. The relative purity of protein samples was determined using SDS-PAGE. PTP1B was purified as described previously (Rayapureddi, J. P. et al. Nature 426, 295-298 (2003), incorporated by reference in its entirety).
An inhibitory assay was conducted using the previously described p-nitrophenylphosphate assay (Rayapureddi, J. P. et al. Nature 426, 295-298 (2003)). Briefly, ED was incubated in a reaction mixture containing 20 mM MES pH 6, 2 mM MgCl2, 125 μM inhibitor, 3.4 mM para-nitrophenol phosphate (pNPP) and 0.01 μg/μL enzyme.
PTP1B is a classical Cys-based tyrosine phosphatase.

[2] = system: retinal vasculature; test: Mouse model of oxygen-induced retinopathy; assay type: in vivo, mice; settings: 100 or 50 pmoles injected at P12, analyzed at P16
Description: The mouse model of oxygen-induced retinopathy mimics the retinopathy characteristic of proliferative retiopathy conditions such as retinopathy of prematurity and diabetic retinopathy. […] The resulting retinal hypoxia after day 12, when pups were brought back to 20% O2, induced excessive hypoxia-driven angiogenesis. A characteristic large avascular area at the center of the retina and excessive regrowth of superficial vessels (pre-retinal neovascular tufts) in the mid-peripheral region was observed. […] In contrast, inhibition of either Vegf or Vegfr2 in OIR experiments suppresses both neovascular tuft formation and revascularization.

[3] = system: developing zebrafish vasculature; test: Zebrafish model of angiogenesis; assay type: in vivo; settings: exposure from 5.25 hpf, analysis at 24 hpf; compound 1 at 0.25 μM
Procedure: Embryos (FLK1-GFP trangenic) were maintained in fish water until the 50% epiboly stage (5.25 hpf) and were transferred into wells of 24-well plate containing the inhibitors in fish water. The analysis for vascular defects was performed after the 24 hpf stage, and embryos were imaged using a fluorescence microscope.
Transgenic fish expressing EGFP in endothelial cells (Tg(flk1:EGFP)) were used to facilitate visualization of the developing vasculature. In control experiments embryos were treated with 0.1% DMSO (vehicle). At the time of analyses (24 hpf) developing vessels normally migrated from the lateral plate mesoderm to the midline and formed the vascular cord, subsequently forming the dorsal aorta and the posterior cardinal vein and followed by the formation of intersegmental vessels at designated branch points (FIG. 6b).

[4] = system: HUVECs; test: HUVEC cell viability assay (WST-8); assay type: cell-based, human; settings: 3 days of exposure
Procedure: Additionally, a cell viability assay was conducted over 3 days of exposure to test compounds 1, 1a and 1g in order to assess both the possibility of immediate cellular toxicity as well as any effect on cell proliferation. HUVECs were seeded and equilibrated for 24 hours before addition of the test compounds. Cellular metabolic activity was measured at defined time-points using the tetrazolium dye WST-8 to quantify NAD(P)H-dependent cellular oxidoreductase enzyme activity.

[5] = system: HUVECs; test: HUVEC transwell migration; assay type: cell-based, human; settings: 5 μM
Description: In order to determine whether EYA3 knock down would affect cell migration, a modified Boyden chamber assay was used to measure HUVEC migration. Briefly, human umbilical vein endothelial cells (HUVECs) were purchased from Lonza (Walkersville, Md.) and maintained in the endothelial cell growth medium (PromoCell, Hleidelberg, Germany), under a 5% CO2 atmosphere. MCF10A cells from ATCC were stably transfected with either pcDNA 3.2N5-DEST (vector control), V5-EYA2 or V5-EYA2(D250N). Transwell migration experiments were performed as previously described (Pandey, R. N. et al. Oncogene 29, 3715-3722, (2010)).

[6] = system: HUVECs; test: HUVEC tubulogenesis on Matrigel; assay type: cell-based, human; settings: for tube formation on Matrigel: HUVEC
Description: Primary endothelial cells (ECs) on basement membrane rapidly attach, align themselves and form capillary-like tubules with lumens and tight cell-cell contacts. […] To better understand the stage in matrigel tube-formation affected by compound 1g cells plated on growth-factor reduced matrigel and treated with either vehicle or compound 1g were followed. Differences become apparent within the first two hours and were clearly visible at the 6-hour time-point. The ECs are much less organized in the presence of compound 1g. […] The effect of compound 1g on tube formation was attenuated in the presence of high concentrations of fetal bovine serum (FBS), likely reflecting non-specific protein binding.
The EYA inhibitors were also tested in tubulogenesis assays. The tubulogenesis assays were performed in 15-well micro-slide (ibidi LLC, Verona Wis.), using growth factor-reduced matrigel (BD Bioscience, Billerica, Mass.). The matrix was prepared by loading 10 μl of matrigel in each micro-slide well and allowing it to solidify for 30 minutes at 37° C. HUVECs were trypsinized and resuspended at 100.000 cell/ml in EBM+2.5% FBS. 50 μl (5,000 cell) were loaded on top of the solidified matrigel and the preparation was incubated for 20 hours at 37° C. in a humidified incubator in a 5% CO2 atmosphere. Bright field images were taken using an inverted microscope at 2.5× magnification, which allowed imaging of the whole well in two pictures that were later merged in Photoshop. Tubular structures were traced and counted using NeuroJ (NIH, USA). In experiments with inhibitor, the inhibitor was added to the cell suspension before loading. Each sample was loaded in triplicate, and each treatment was repeated for reproducibility.

PTP1B, sequence (P18031 whole entry, species assumed, the tested form may be a part): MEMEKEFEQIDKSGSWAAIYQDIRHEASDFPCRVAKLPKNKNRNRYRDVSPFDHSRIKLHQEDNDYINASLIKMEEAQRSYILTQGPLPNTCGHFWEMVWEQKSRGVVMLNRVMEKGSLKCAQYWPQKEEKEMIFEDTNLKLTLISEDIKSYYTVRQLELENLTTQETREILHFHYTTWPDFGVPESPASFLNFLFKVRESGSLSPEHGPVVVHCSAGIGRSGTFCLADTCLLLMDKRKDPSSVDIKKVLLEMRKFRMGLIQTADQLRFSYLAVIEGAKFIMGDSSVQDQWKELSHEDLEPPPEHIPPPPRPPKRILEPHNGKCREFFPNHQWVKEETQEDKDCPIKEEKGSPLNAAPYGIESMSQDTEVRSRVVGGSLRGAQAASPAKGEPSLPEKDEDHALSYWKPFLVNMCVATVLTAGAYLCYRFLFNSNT

Row | fold greater activity towards EYA3 than PTP1B ([1]; EYA3 vs PTP1B) | IC50 [1] | SMILES | formation of neovascular tufts [2] | intersegmental vessels in zebrafish embryos [3] | cell viability [4] | HUVEC cell motility [5] | tube formation on Matrigel [6] | tubulogenesis inhibition ([6]; 7.5 μM)
1 | over 100 fold | > 150 µM | CCc1oc2ccccc2c1C(=O)c1ccc(O)cc1 [Compound 1a] | Significant reduction in the formation of neovascular tufts | reduced the number of intersegmental vessels, but were less potent | reduced cell viability | attenuated HUVEC cell motility | inhibit EYA3 protein in cell migration and tubulogenesis | –
2 | – | 53.8 µM | CCc1oc2ccccc2c1C(=O)c1cc(Br)c(O)c(Br)c1 [Compound 1, Benzbromarone, reference compound] | Significant reduction in the formation of neovascular tufts | significant reduction of intersegmental vessels | reduced cell viability | attenuated HUVEC cell motility | inhibit EYA3 protein in cell migration and tubulogenesis | effective at the highest concentrations tested
